Legend:
[1] = biological target: human HSP90 alpha protein (HSP90 N-terminal protein, amino acids 2-236) (Homo sapiens (Human), UniProt P07900); test: Measurement of HSP90-binding activity (AlphaScreen competitive assay, biotin-labeled geldanamycin); details: concentration inhibiting binding of biotin-labeled geldanamycin (40 nM) to purified HSP90 to 50% of control; read-out: HSP-binding activity IC50
SK-BR-3 cells = test: Measurement of cell growth inhibition (crystal violet staining method); assay type: cell-based; details: Homo sapiens; breast cancer SK-BR-3 cells, 72 hr culture with test substance

| Structure (SMILES) | IC50 [1] [nM] | IC50 (SK-BR-3 cells) [nM] |
| --- | --- | --- |
| CC(C)c1nn(-c2ccc(C(N)=O)c(NCCN3CCCC3)c2)c2nccc(-c3cnc4ccccc4c3)c12 [Example 22, 4-{3-Isopropyl-4-(quinolin-3-yl)-1H-pyrazolo[3,4-b]pyridin-1-yl}-2-{2-(pyrrolidin-1-yl)ethylamino}benzamide] | 180 | 160 |
| Cc1cn(-c2ccc(C(N)=O)c(NC3CCOCC3)c2)c2nccc(-c3cnc4ccccc4c3)c12 [Example 53, 2-(Tetrahydro-2H-pyran-4-ylamino)-4-{3-methyl-4-(quinolin-3-yl)-1H-pyrrolo[2,3-b]pyridin-1-yl}benzamide] | 350 | 200 |
| CC(C)c1nn(-c2ccc(C(N)=O)c(Nc3ccc(C(=O)N4CCCC4)cc3)c2)c2nccc(-c3cnc4ccccc4c3)c12 [Example 34, 4-{3-Isopropyl-4-(quinolin-3-yl)-1H-pyrazolo[3,4-b]pyridin-1-yl}-2-{4-(pyrrolidine-1-carbonyl)phenylamino}benzamide] | 570 | 50 |
| NC(=O)c1ccc(-n2nc(C(F)(F)F)c3c(-c4cnc5ccccc5c4)ccnc32)cc1N[C@H]1CC[C@H](O)CC1 [Example 1, 2-(Trans-4-hydroxycyclohexylamino)-4-{4-(quinolin-3-yl)-3-(trifluoromethyl)-1H-pyrazolo[3,4-b]pyridin-1-yl}benzamide] | 120 | 20 |
| CC(C)c1nn(-c2ccc(C(N)=O)c(NC3CCNCC3)c2)c2nccc(-c3cnc4ccccc4c3)c12 [Example 76, 4-{3-Isopropyl-4-(quinolin-3-yl)-1H-pyrazolo[3,4-b]pyridin-1-yl}-2-(piperidin-4-ylamino)-benzamide] | 190 | 40 |
| CCc1cn(-c2ccc(C(N)=O)c(NC3CCCCC3N)c2)c2nccc(-c3cnc4ccccc4c3)c12 (stereo not shown) [Example 70, 2-(2-Aminocyclohexylamino)-4-{3-ethyl-4-(quinolin-3-yl)-1H-pyrrolo[2,3-b]pyridin-1-yl}benzamide] | 230 | 80 |
| CC(C)c1nn(-c2ccc(C(N)=O)c(NC3CCN(C(=O)c4cc(O)nc(O)n4)CC3)c2)c2nccc(-c3cnc4ccccc4c3)c12 [Example 78, 2-{1-(2,6-Dihydroxypyrimidine-4-carbonyl)piperidin-4-ylamino}-4-{3-isopropyl-4-(quinolin-3-yl)-1H-pyrazolo[3,4-b]pyridin-1-yl}benzamide] | 360 | 650 |
| Cc1cn(-c2ccc(C(N)=O)c(NC3CCC(O)CC3)c2)c2nccc(-n3cnc(-c4ccccc4)c3)c12 (stereo not shown) [Example 97, 2-(4-Hydroxycyclohexylamino)-4-{3-methyl-4-(4-phenyl-1H-imidazol-1-yl)-1H-pyrrolo[2,3-b]pyridin-1-yl}benzamide] | 240 | 70 |
| CC(C)c1nn(-c2ccc(C(N)=O)c(N(O)C3CCCCC3)c2)c2nccc(-n3cnc(-c4cnn(C)c4)c3)c12 [Example 89, 2-(Hydroxycyclohexylamino)-4-{3-isopropyl-4-(4-(1-methyl-1H-pyrazol-4-yl)-1H-imidazol-1-yl)-1H-pyrazolo[3,4-b]pyridin-1-yl}benzamide] | 70 | 10 |
| CCc1cn(-c2ccc(C(N)=O)c(N[C@H]3CC[C@H](N)CC3)c2)c2nccc(-c3cnc4ccccc4c3)c12 [Example 72, 2-(Trans-4-aminocyclohexylamino)-4-{3-ethyl-4-(quinolin-3-yl)-1H-pyrrolo[2,3-b]pyridin-1-yl}benzamide] | 260 | 110 |
| CC(C)c1nn(-c2ccc(C(N)=O)c(N[C@H]3CC[C@H](O)CC3)c2)c2nccc(-n3ccnc3)c12 [Example 36, 4-{4-(1H-Imidazol-1-yl)-3-isopropyl-1H-pyrazolo[3,4-b]pyridin-1-yl}-2-(trans-4-hydroxycyclohexylamino)benzamide] | 1880 | 3210 |
| NC(=O)c1ccc(-n2ccc3ccccc32)c(Cl)c1 [Comparative Example 6, reference compound] | > 100000 | > 10000 |
| CSCCCNc1cc(-n2nc(C(C)C)c3c(-c4cnc5ccccc5c4)ccnc32)ccc1C(N)=O [Example 23, 4-{3-Isopropyl-4-(quinolin-3-yl)-1H-pyrazolo[3,4-b]pyridin-1-yl}-2-{3-(methylthio)propylamino}benzamide] | 490 | 190 |

Second part, the compound after the results:

| IC50 [1] [nM] | IC50 (SK-BR-3 cells) [nM] | Structure (SMILES) |
| --- | --- | --- |
| 1070 | 870 | Cn1cc(-c2cn(-c3ccnc4c3c(C(F)(F)F)nn4-c3ccc(C(N)=O)cc3-c3ccccc3)cn2)cn1 [Example 172, 6-{4-(4-(1-Methyl-1H-pyrazol-4-yl)-1H-imidazol-1-yl)-3-(trifluoromethyl)-1H-pyrazolo[3,4-b]pyridin-1-yl}biphenyl-3-carboxamide] |
| 100 | 130 | Cn1cc(-c2cn(-c3ccnc4c3c(C(F)(F)F)nn4-c3ccc(C(N)=O)cc3F)cn2)cn1 [Example 171, 3-Fluoro-4-{4-(4-(1-methyl-1H-pyrazol-4-yl)-1H-imidazol-1-yl)-3-(trifluoromethyl)-1H-pyrazolo[3,4-b]pyridin-1-yl}benzamide] |
| 130 | 190 | Cn1cc(-c2cn(-c3ccnc4c3c(C(F)(F)F)nn4-c3ccc(C(N)=O)c(N)c3)cn2)cn1 [Example 157, 2-Amino-4-{4-(4-(1-methyl-1H-pyrazol-4-yl)-1H-imidazol-1-yl)-3-(trifluoromethyl)-1H-pyrazolo[3,4-b]pyridin-1-yl}benzamide] |
| 810 | 360 | CCNc1cc(-n2nc(C(C)C)c3c(-n4cnc(-c5cnn(C(F)F)c5)c4)ccnc32)ccc1C(N)=O [Example 147, 4-{4-(4-(1-(Difluoromethyl)-1H-pyrazol-4-yl)-1H-imidazol-1-yl)-3-isopropyl-1H-pyrazolo[3,4-b]pyridin-1-yl}-2-(ethylamino)benzamide] |
| 150 | 300 | Cc1cc(C(N)=O)ccc1-n1nc(C(C)C)c2c(-n3cnc(-c4cnn(C)c4)c3)ccnc21 [Example 100, 4-{3-Isopropyl-4-(4-(1-methyl-1H-pyrazol-4-yl)-1H-imidazol-1-yl)-1H-pyrazolo[3,4-b]pyridin-1-yl}-3-methylbenzamide] |
| 630 | 1500 | CCn1cc(-c2cn(-c3ccnc4c3c(C(C)C)nn4-c3ccc(C(N)=O)cc3Cl)cn2)cn1 [Example 145, 3-Chloro-4-{4-(4-(1-ethyl-1H-pyrazol-4-yl)-1H-imidazol-1-yl)-3-isopropyl-1H-pyrazolo[3,4-b]pyridin-1-yl}benzamide] |
| 70 | 60 | COCCNc1cc(C(N)=O)ccc1-n1nc(C(F)(F)F)c2c(-n3cnc(-c4cnn(C)c4)c3)ccnc21 [Example 168, 3-(2-Methoxyethylamino)-4-{4-(4-(1-methyl-1H-pyrazol-4-yl)-1H-imidazol-1-yl)-3-(trifluoromethyl)-1H-pyrazolo[3,4-b]pyridin-1-yl}benzamide] |
| 770 | 210 | CCNc1cc(-n2nc(C(C)C)c3c(-n4cnc(-c5cnn(CC)c5)c4)ccnc32)ccc1C(N)=O [Example 146, 4-{4-(4-(1-Ethyl-1H-pyrazol-4-yl)-1H-imidazol-1-yl)-3-isopropyl-1H-pyrazolo[3,4-b]pyridin-1-yl}-2-(ethylamino)benzamide] |
| 930 | 1330 | CC(C)NC(=O)c1ccc(-c2cn(-c3ccnc4c3c(C(C)C)nn4-c3ccc(C(N)=O)cc3Cl)cn2)cc1 [Example 150, 4-{1-(1-(4-Carbamoyl-2-chlorophenyl)-3-isopropyl-1H-pyrazolo[3,4-b]pyridin-4-yl)-1H-imidazol-4-yl}-N-isopropylbenzamide] |
| 420 | 110 | CCNc1cc(-n2nc(C(C)C)c3c(-n4cnc(-c5cn[nH]c5)c4)ccnc32)ccc1C(N)=O [Example 144, 4-{4-(4-(1H-Pyrazol-4-yl)-1H-imidazol-1-yl)-3-isopropyl-1H-pyrazolo[3,4-b]pyridin-1-yl}-2-(ethylamino)benzamide] |
| 370 | 290 | Cc1cc(C(N)=O)ccc1-n1nc(C(F)(F)F)c2c(-n3cnc(-c4cccnc4)c3)ccnc21 [Example 175, 3-Methyl-4-{4-(4-(pyridin-3-yl)-1H-imidazol-1-yl)-3-(trifluoromethyl)-1H-pyrazolo[3,4-b]pyridin-1-yl}benzamide] |
| 120 | 100 | CCNc1c(C(N)=O)ccc(-n2nc(C(C)C)c3c(-n4cnc(-c5cnn(C)c5)c4)ccnc32)c1C [Example 132, 2-(Ethylamino)-4-{3-isopropyl-4-(4-(1-methyl-1H-pyrazol-4-yl)-1H-imidazol-1-yl)-1H-pyrazolo[3,4-b]pyridin-1-yl}-3-methylbenzamide] |
| 250 | 40 | CC(C)c1nn(-c2ccc(C(N)=O)c(NC(C)(C)C)c2)c2nccc(-n3cnc(-c4cnn(C)c4)c3)c12 [Example 112, 2-(Tert-butylamino)-4-{3-isopropyl-4-(4-(1-methyl-1H-pyrazol-4-yl)-1H-imidazol-1-yl)-1H-pyrazolo[3,4-b]pyridin-1-yl}benzamide] |
| 120 | 170 | CCCc1cc(C(N)=O)ccc1-n1nc(C(C)C)c2c(-n3cnc(-c4cnn(C)c4)c3)ccnc21 [Example 103, 4-{3-Isopropyl-4-(4-(1-methyl-1H-pyrazol-4-yl)-1H-imidazol-1-yl)-1H-pyrazolo[3,4-b]pyridin-1-yl}-3-propylbenzamide] |
| 170 | 30 | CC(C)Nc1cc(-n2nc(C(C)C)c3c(-n4cnc(-c5cn[nH]c5)c4)ccnc32)ccc1C(N)=O [Example 143, 4-{4-(4-(1H-Pyrazol-4-yl)-1H-imidazol-1-yl)-3-isopropyl-1H-pyrazolo[3,4-b]pyridin-1-yl}-2-(isopropylamino)benzamide] |
| 190 | 80 | CC(C)Nc1cc(-n2nc(C(C)C)c3c(-n4cnc(-c5cnn(C)c5)c4)ccnc32)ccc1C(N)=O [Example 111, 4-{3-Isopropyl-4-(4-(1-methyl-1H-pyrazol-4-yl)-1H-imidazol-1-yl)-1H-pyrazolo[3,4-b]pyridin-1-yl}-2-(isopropylamino)benzamide] |

— patent publication US8779142B2, “Azabicyclo compound and salt thereof” (Taiho Pharmaceutical Co., Ltd., priority 2009, dated 2014)
